Data: patent US5159085A, “2-anilino phenylacetic acid derivatives as inhibitors of PLA2 and lipoxygenase” (American Home Products Corporation, priority 1991, dated 1992)

Legend:
Bee Venom PLA2 = Bee Venom PLA2 (Apis mellifera, UniProt P00630); assay: biochemical; conditions: read-out: % Inhibition at a concentration of 10 μM, Bee Venom
Pancreatic Lipase PLA2 = assay: In vitro isolated phospholipase A2 assay, pancreatic lipase PLA2; format: biochemical
[1] = tested on: Rat Peritonitis Fluid PLA2; assay: In vitro isolated phospholipase A2 assay, rat peritonitis fluid PLA2; format: biochemical
[2] = tested on: LTB4 synthesis by rat glycogen-elicited polymorphonuclear leukocytes (lipoxygenase); assay: Inhibition of LTB4 synthesis by rat glycogen-elicited polymorphonuclear leukocytes (PMN); format: cell-based, rat (female Wistar); conditions: Rattus norvegicus, Leukocyte, A 23187 and exogenous AA
Text: This is especially true with respect to 5,12-diHETE, which is also denoted as LTB4 [see Ford-Hitchinson, J. Roy. Soc. Med., 74, 831 (1981)]. Compounds which inhibit the PLA2 -mediated release of arachidonic acid thereby effectively prevent the oxidation of arachidonic acid to the various leukotriene products via the lipoxygenase cascade. Accordingly, the specificity of action of PLA2 inhibitors can be determined by the activity of test compounds in this assay, which measures the ability of compounds to inhibit the synthesis of LTB4 by rat glycogen-elicited polymorphonuclear leukocytes (PMN) in the presence of exogenous substrate.
The assay is carried out as follows:
Rat polymorphonuclear leukocytes (PMNs) are obtained from female Wistar rats (150-200 g) which receive an injection of 6% glycogen (10 ml i.p.). Rats are sacrificed 18-24 hours post injection by CO2 asphyxiation and the elicited cells are harvested by peritoneal lavage using physiological saline (0.9% NaCl). The exudate is centrifuged at 400×g for 10 minutes. The supernatant fluid is discarded and the cell pellet is resuspended to a concentration of 2.0×10^7 cells/ml in HBSS containing Ca^++ and Mg^++ and 10 μM L-cysteine.
To 1 ml aliquots of cell suspension, test drugs or vehicle are added, then preincubated at 37° C. for 10 minutes. A 23187 (1 μM), [^3 H]-AA (3.0 μCi/ml) and unlabeled AA (1 μM) are then added and the samples are further incubated for 10 minutes. The reaction is terminated by centrifugation and pelleting cells. Supernatants are then analyzed by HPLC analysis on a 15 cm×4.6 mm ID supelcosil LC-18 (Supelco)(3M) column, using a two solvent system at a flow rate of 1.4 ml total flow as follows:
Gradient: (system is equillibrated with Solvent A)
Percent solvent changes are accomplished in a linear fashion.
Injections: 150 μl of each supernatant is injected directly onto column and ^3 H arachidonic acid metabolites are monitored using an on-line radioactivity detector (Ramona, IN/US, Fairfield, NJ).
Standards: 10^4 -2.0×10^4 dpm of eicosanoids of interest are injected in 90 μl EtOH cocktail.
Co-chromatography with standard [^3 H] leukotriene B4 (LTB4) in medium of stimulated PMN exposed to drug is compared to that found in medium of stimulated cells exposed to no drug, generating percent inhibition.
Results are expressed as percent inhibition at a given compound dose or as an IC50 value.

[3] = Rat acute gastroirritation assay; design: species or system rat (male Sprague Dawley); conditions: in vivo, po, gastric intubation, read-out: UD50
Experimental: The compounds of the invention are tested in the rat acute gastroirritation assay to examine their potential for causing gastric irritation when administered at doses exceeding the effective dose.
This assay is carried out as follows:
Male Sprague Dawley rats (190-220 g) are fasted for 18 hours prior to drug administration. Rats are divided into groups of 8 and coded (i.e., observer of gastric lesions is not aware of drug treatment). Drugs are dissolved or suspended in 0.5% Tween 80 and administered by gastric intubation in a volume of 1 ml/100 g body weight, control rats receiving only Tween 80. Four hours after drug administration, rats are evaluated by recording the incidence and severity of gastroirritation using the following scoring system: 0) No irritation or lesions; 1) irritation (redness); 2) ≤5 lesions (ulcers); and 3) >5 lesions. Dunnett's test (α=0.05) is used to calculate the mean ±SE of each test group and the statistical significance.

Chain of Bee Venom PLA2 (P00630 34-167 limits assumed): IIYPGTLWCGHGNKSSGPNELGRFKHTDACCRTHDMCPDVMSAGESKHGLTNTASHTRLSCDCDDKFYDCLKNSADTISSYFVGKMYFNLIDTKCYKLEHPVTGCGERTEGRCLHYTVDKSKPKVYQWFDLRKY

With O=C(O)Cc1cc(OCc2ccc3ccccc3n2)ccc1Nc1c(Cl)cccc1Cl [Example 2, 2-[(2,6-Dichlorophenyl)amino]-5-(2-quinolylmethoxy)benzene acetic acid] the inhibition at 10 µM (Bee Venom PLA2) was 38.7%, the “% Inhibition at a concentration of 10 μM, Pancreatic Lipase” value (Pancreatic Lipase PLA2) was 90.1% and the “% Inhibition at a concentration of 10 μM, Rat Peritonitis Fluid” value [1] was 69.7%. For the same compound, the IC50 [2] was 0.01 µM.

O=C(O)Cc1ccccc1Nc1c(Cl)cccc1Cl [diclofenac, reference compound] showed a TD50 at 4 h [3] of 20 mg/kg.
